Reference: publication doi:10.1101/2025.01.28.635346v1 (bioRxiv, 2025)
Bridge positions count the residues as written; N and C are the ends. Side chains are listed from the residue outwards. Peptide text beside a SMILES is read from it. * marks the point of attachment. Butanoyl(4-(4-I-phenyl)) = O=C(CCCc1ccc(I)cc1)*; PEG2 = NCCOCCOCCC(=O)O

Assays:
integrin αvβ6 = integrin αvβ6 (Homo sapiens, UniProt P06756+P18564); assay: ELISA competition assay, integrin αvβ6 binding to LAP; conditions: αvβ6 IC50, ELISA competition vs LAP; mean, n ≥ 3
integrin αvβ1 = integrin αvβ1 (Homo sapiens, UniProt P05556+P06756); assay: ELISA competition assay, integrin αvβ1; assay type: binding
integrin α5β1 = integrin α5β1 (Homo sapiens, UniProt P05556+P08648); assay: ELISA competition assay, integrin α5β1; assay type: binding
[1] = Plasma stability, mouse plasma; assay type: in vitro ADME
[2] = Plasma protein binding, rapid equilibrium dialysis, mouse plasma; assay type: in vitro ADME; conditions: for Plasma protein binding, %Recovery: mouse plasma, RED, 2 μM, 4 h, 37°C; for fraction unbound at 4 h, 2 μM: mouse, plasma, pH 7.4
ADORA2A = ADORA2A (Homo sapiens, UniProt P29274); assay: Safetyscan47 GPCR Calcium Flux, Agonist; assay type: cell-based; conditions: for Emax: read-out: Max Response
ADRA1A = molecular target: T1, ADRA1A (Homo sapiens, UniProt P35348); assay: Safetyscan47 GPCR Calcium Flux, Agonist; assay type: cell-based; conditions: for Emax: read-out: Max Response
T1 sequence (P35348 1-466): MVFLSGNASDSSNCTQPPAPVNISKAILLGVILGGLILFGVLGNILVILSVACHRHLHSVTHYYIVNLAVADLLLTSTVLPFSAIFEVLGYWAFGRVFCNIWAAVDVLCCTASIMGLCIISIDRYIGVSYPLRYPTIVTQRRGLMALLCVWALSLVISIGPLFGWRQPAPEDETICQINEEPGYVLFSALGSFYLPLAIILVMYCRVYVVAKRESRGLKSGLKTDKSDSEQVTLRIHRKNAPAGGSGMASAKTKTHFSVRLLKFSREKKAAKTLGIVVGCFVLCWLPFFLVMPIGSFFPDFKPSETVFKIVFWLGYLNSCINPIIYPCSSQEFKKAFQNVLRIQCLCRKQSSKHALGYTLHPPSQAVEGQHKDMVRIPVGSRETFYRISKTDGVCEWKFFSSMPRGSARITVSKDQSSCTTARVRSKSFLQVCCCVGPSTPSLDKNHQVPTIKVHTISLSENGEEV

CCKAR = molecular target: T2, CCKAR (Homo sapiens, UniProt P32238); assay: Safetyscan47 GPCR Calcium Flux, Antagonist; assay type: cell-based; conditions: for Emax: read-out: Max Response
T2 sequence (P32238 1-428): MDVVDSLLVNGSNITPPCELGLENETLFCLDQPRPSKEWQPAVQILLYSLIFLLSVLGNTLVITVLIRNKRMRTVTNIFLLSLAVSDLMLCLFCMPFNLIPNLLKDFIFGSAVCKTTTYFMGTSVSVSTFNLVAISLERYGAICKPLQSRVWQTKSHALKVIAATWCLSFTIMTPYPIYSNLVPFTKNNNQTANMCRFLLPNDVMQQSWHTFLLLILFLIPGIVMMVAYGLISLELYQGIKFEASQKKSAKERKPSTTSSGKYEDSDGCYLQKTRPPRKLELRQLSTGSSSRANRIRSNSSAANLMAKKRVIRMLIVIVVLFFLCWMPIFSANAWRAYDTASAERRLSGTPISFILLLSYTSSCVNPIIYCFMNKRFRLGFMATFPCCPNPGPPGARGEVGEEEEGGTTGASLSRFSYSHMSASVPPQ

HTR2A = HTR2A (Homo sapiens, UniProt P28223); assay: Safetyscan47 GPCR Calcium Flux, Antagonist; assay type: cell-based; conditions: for Emax: read-out: Max Response
ADRB1 [3] = molecular target: T3, ADRB1 (Homo sapiens, UniProt P08588); assay: Safetyscan47 GPCR cAMP, Agonist; assay type: cell-based; conditions: for Emax: read-out: Max Response
ADRB1 [4] = molecular target: T3, ADRB1; assay: Safetyscan47 GPCR cAMP, Antagonist; assay type: cell-based; conditions: for Emax: read-out: Max Response
CNR1 = CNR1 (Homo sapiens, UniProt P21554); assay: Safetyscan47 GPCR cAMP, Antagonist; assay type: cell-based; conditions: for Emax: read-out: Max Response
DRD2S = DRD2S (Homo sapiens, UniProt P14416); assay: Safetyscan47 GPCR cAMP, Antagonist; assay type: cell-based; conditions: for Emax: read-out: Max Response
HRH2 = HRH2 (Homo sapiens, UniProt P25021); assay: Safetyscan47 GPCR cAMP, Antagonist; assay type: cell-based; conditions: for Emax: read-out: Max Response
HTR1A = molecular target: T4, HTR1A (Homo sapiens, UniProt P08908); assay: Safetyscan47 GPCR cAMP, Antagonist; assay type: cell-based; conditions: for Emax: read-out: Max Response
T4 sequence (P08908 1-422): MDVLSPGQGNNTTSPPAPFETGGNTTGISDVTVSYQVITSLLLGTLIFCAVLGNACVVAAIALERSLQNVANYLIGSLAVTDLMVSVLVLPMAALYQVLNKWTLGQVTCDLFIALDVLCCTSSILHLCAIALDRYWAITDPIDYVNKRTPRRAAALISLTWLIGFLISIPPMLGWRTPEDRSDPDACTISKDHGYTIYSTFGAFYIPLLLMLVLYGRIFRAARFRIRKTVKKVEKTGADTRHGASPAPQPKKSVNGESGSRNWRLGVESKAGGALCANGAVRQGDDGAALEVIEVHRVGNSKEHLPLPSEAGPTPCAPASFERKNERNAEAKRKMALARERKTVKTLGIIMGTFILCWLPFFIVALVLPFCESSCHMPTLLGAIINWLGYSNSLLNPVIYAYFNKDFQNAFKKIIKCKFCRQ

NAV1.5 = NAV1.5 (Homo sapiens, UniProt Q14524); assay: Safetyscan47 Ion Channel, Blocker; assay type: cell-based
AChE = AChE (Homo sapiens, UniProt P22303); assay: Safetyscan47 Non-Kinase Enzymes Enzymatic, Inhibitor; assay type: biochemical; conditions: for Emax: read-out: Max Response
DAT = DAT (Homo sapiens, UniProt Q01959); assay: Safetyscan47 Transporter, Blocker; assay type: cell-based; conditions: for Emax: read-out: Max Response

## CC[C@H](C)[C@H](NC(=O)[C@H](CC(C)C)NC(=O)[C@H](CC(=O)O)NC(=O)CNC(=O)[C@H](CCCNC(=N)N)NC(=O)[C@@H](NC(=O)[C@H](Cc1ccccc1)NC(=O)[C@H](Cc1ccc(O)cc1)NC(=O)[C@@H]1CCC(=O)NCC(=O)NCC(=O)N[C@@H](CCCNC(=N)N)C(=O)NCC(=O)N[C@@H](Cc2c[nH]cn2)C(=O)N[C@@H](C(C)C)C(=O)N2CCC[C@H]2C(=O)N1)C(C)C)C(=O)N[C@@H](CO)C(=O)N[C@@H](Cc1ccccc1)C(=O)N[C@@H](Cc1ccc(O)cc1)C(=O)N[C@@H](CCCCN)C(=O)O [lassotide 36] (GGRGHVPEYFVRGDLISFYK-OH; lactam N-8)
Integrin αvβ6
  IC50: 0.012 µM
Integrin αvβ1
  IC50: 0.084 µM
Integrin α5β1
  IC50: 2.35 µM
[1]
  half-life at 2 μM: 5.1 h
  remaining at 0.5 h, 2 μM: 88.7%
  remaining at 4 h, 2 μM: 56.1%
[2]
  Plasma protein binding, %Recovery: 91%
  fraction unbound at 4 h, 2 μM: 0.222
ADORA2A
  EC50: > 45 µM
  Emax: 38.9%
ADRA1A
  EC50: > 45 µM
  Emax: 2.01%
CCKAR
  IC50: > 45 µM
  Emax: 3.61%
HTR2A
  IC50: > 45 µM
  Emax: 5.08%
ADRB1 [3]
  EC50: > 45 µM
  Emax: 0%
ADRB1 [4]
  IC50: > 45 µM
  Emax: 15.6%
CNR1
  IC50: > 45 µM
  Emax: 9.79%
DRD2S
  IC50: > 45 µM
  Emax: 0%
HRH2
  IC50: > 45 µM
  Emax: 2.58%
HTR1A
  IC50: > 45 µM
  Emax: 0%
NAV1.5
  Emax: 39.5%
  IC50: > 45 µM
AChE
  IC50: > 45 µM
  Emax: 0%
DAT
  IC50: > 45 µM
  Emax: 29.8%

## CC[C@H](C)[C@H](NC(=O)[C@H](CC(C)C)NC(=O)[C@H](CC(=O)O)NC(=O)CNC(=O)[C@H](CCCNC(=N)N)NC(=O)[C@@H](NC(=O)[C@H](Cc1ccccc1)NC(=O)[C@H](Cc1ccc(O)cc1)NC(=O)[C@@H]1CCC(=O)NCC(=O)NCC(=O)N[C@@H](CCCNC(=N)N)C(=O)NCC(=O)N[C@@H](Cc2c[nH]cn2)C(=O)N[C@@H](C(C)C)C(=O)N2CCC[C@H]2C(=O)N1)C(C)C)C(=O)N[C@@H](CO)C(=O)N[C@@H](Cc1ccccc1)C(=O)N[C@@H](Cc1ccc(O)cc1)C(=O)N[C@@H](CCCCNC(=O)CCOCCOCCNC(=O)CCCc1ccc(I)cc1)C(=O)O [lassotide 47] (GGRGHVPEYFVRGDLISFYK([PEG2-Butanoyl(4-(4-I-phenyl))])-OH; lactam N-8)
Integrin αvβ6
  IC50: 0.0032 µM
Integrin αvβ1
  IC50: 1.23 µM
Integrin α5β1
  IC50: 5.02 µM
[1]
  remaining at 0.5 h, 2 μM: 86.3%
  remaining at 4 h, 2 μM: 86.9%
[2]
  Plasma protein binding, %Recovery: 100%
  fraction unbound at 4 h, 2 μM: 0.005
ADORA2A
  EC50: > 45 µM
  Emax: 0%
ADRA1A
  EC50: > 45 µM
  Emax: 0.52%
CCKAR
  IC50: > 45 µM
  Emax: 3.35%
HTR2A
  IC50: > 45 µM
  Emax: 10.7%
ADRB1 [3]
  EC50: > 45 µM
  Emax: 0%
ADRB1 [4]
  IC50: > 45 µM
  Emax: 40%
CNR1
  IC50: > 45 µM
  Emax: 0%
DRD2S
  IC50: > 45 µM
  Emax: 0%
HRH2
  IC50: > 45 µM
  Emax: 30%
HTR1A
  IC50: > 45 µM
  Emax: 0%
NAV1.5
  Emax: 0%
  IC50: > 45 µM
AChE
  IC50: > 45 µM
  Emax: 7.88%
DAT
  IC50: > 45 µM
  Emax: 13%
